In patent US8058332B2, “Phosphorus-sulfur FR additives and polymer systems containing same” (priority 2006, dated 2011):

format: physicochemical; conditions: TGA, nitrogen 60 mL/min, heating rate 10° C./min, room temperature to 600° C.
Description: A useful indicator of thermal stability is a 5% weight loss temperature, which is measured by thermogravimetric analysis as follows: ˜10 milligrams of the phosphorus-sulfur FR additive is analyzed using a TA Instruments model Hi-Res TGA 2950 or equivalent device, with a 60 milliliters per minute (mL/min) flow of gaseous nitrogen and a heating rate of 10° C./min over a range of from room temperature (nominally 25° C.) to 600° C. The mass lost by the sample is monitored during the heating step, and the temperature at which the sample has lost 5% of its initial weight is designated the 5% weight loss temperature (5% WLT). This method provides a temperature at which a sample undergoes a cumulative weight loss of 5 wt %, based on initial sample weight. […] When it is to be used in a melt-processing operation with a combustible polymer, the phosphorus-sulfur FR additive should have a 5% WLT of at least 150° C.

| Molecule | 5% WLT |
| --- | --- |
| 2,2′,2″,2″′-[1,2,4,6-phenylenetetra(methylthio)]tetra[5,5-dimethyl-1,3,2-dioxaphosphorinane]-2,2′,2″,2″′-sulfide [Example 7] | 281 °C |
| 2,2′-{1,4-phenylenebis[(dimethylsilanediyl)ethane-2,1-diylbicyclo[2.2.1]heptane-6,2-diylthio]}bis(5,5-dimethyl-1,3,2-dioxaphosphorinane) 2,2′-disulfide [Example 27] | 285 °C |
| CC1(C)COP(=S)(SC/C=C/CSP2(=S)OCC(C)(C)CO2)OC1 [Example 1, 2,2′-[2-butene-1,4-diylbis(methylthio)]bis[5,5-dimethyl-1,3,2-dioxaphosphorinane]-2,2′-disulfide] | 241 °C |
| CC1(C)COP(=S)(SCc2ccccc2CSP2(=S)OCC(C)(C)CO2)OC1 [Example 4, 2,2′-[1,2-phenylenebis(methylthio)]bis[5,5-dimethyl-1,3,2-dioxaphosphorinane]-2,2′-disulfide] | 240 °C |
| CC1(C)COP(=O)(SCc2ccccc2CSP2(=O)OCC(C)(C)CO2)OC1 [Example 5, 2,2′-[1,2-phenylenebis(methylthio)]bis[5,5-dimethyl-1,3,2-dioxaphosphorinane]-2,2′-dioxide] | 247 °C |
| Cc1c(CSP2(=S)OCC(C)(C)CO2)c(C)c(CSP2(=S)OCC(C)(C)CO2)c(C)c1CSP1(=S)OCC(C)(C)CO1 [Example 8, 2,2′,2″-[2,4,6-trimethyl-1,3,5-phenylenetris(methylthio)]tris[5,5-dimethyl-1,3,2-dioxaphosphorinane]-2,2′,2″-disulfide] | 283 °C |
| CC1(C)COP(=S)(SCP(=O)(CSP2(=S)OCC(C)(C)CO2)CSP2(=S)OCC(C)(C)CO2)OC1 [Example 16] | 243 °C |
| CC1(C)COP(=S)(Sc2nc(SP3(=S)OCC(C)(C)CO3)nc(SP3(=S)OCC(C)(C)CO3)n2)OC1 [Example 17, 2,2′,2″-[s-triazine-2,4,6-tris(thio)]tris[(5,5-dimethyl-1,3,2-dioxaphosphorinane)-2,2′,2″-sulfide]] | 249 °C |
| CC1(C)COP(=S)(N(Cc2ccccc2)P2(=S)OCC(C)(C)CO2)OC1 [Example 18, N-benzyl-N-(5,5-dimethyl-2-sulfido-1,3,2-dioxaphosphorinan-2-yl)-5,5-dimethyl-1,3,2-dioxaphosphorinan-2-amine-2-sulfide] | 202 °C |
| CC1(C)COP(=S)(Cc2ccccc2CP2(=S)OCC(C)(C)CO2)OC1 [Example 19, [1,2-phenylenebis(methylene)]bis[5,5-dimethyl[1,3,2]dioxaphosphorinane]2,2′-disulfide] | 284 °C |
| CC1(C)COP(=S)(SCCCCSP2(=S)OCC(C)(C)CO2)OC1 [Example 20, 2,2′-[1,4-butylbis(methylthio)]bis[5,5-dimethyl-1,3,2-dioxaphosphorinane]-2,2′-disulfide] | 244 °C |
| CC1(C)COP(=S)(SC2CC3CC2CC3SP2(=S)OCC(C)(C)CO2)OC1 (stereo not drawn) [Example 21, 2,2′-[bicyclo[2.2.1]heptane-2,5-diylbis(thio)]bis[5,5-dimethyl-1,3,2-dioxaphosphorinane]2,2′-disulfide] | 264 °C |
| CCOC(=O)CC(SP1(=S)OCC(C)(C)CO1)C(=O)OCC (stereo not drawn) [Example 23] | 218 °C |
| CC(CCCCCCC(C)SP1(=S)OCC(C)(C)CO1)SP1(=S)OCC(C)(C)CO1 (stereo not drawn) [Example 24, 2,2′-[decane-2,9-diylbis(thio)]bis(5,5-dimethyl-1,3,2-dioxaphosphorinane)2,2′-disulfide] | 239 °C |
| CC1(C)COP(=S)(SC(c2ccccc2)c2ccccc2)OC1 [Example 25, 2-[(diphenylmethyl)thio]-5,5-dimethyl-1,3,2-dioxaphosphorinane 2-sulfide] | 238 °C |
| O=P1(SC/C=C/CSP2(=O)Oc3ccccc3-c3ccccc32)Oc2ccccc2-c2ccccc21 (stereo not drawn) [Example 26] | 270 °C |
| CC1(C)COP(=O)(Cc2ccc(CSP3(=S)OCC(C)(C)CO3)cc2)OC1 [Example 28, 2-({4-[(5,5-dimethyl-2-oxido-1,3,2-dioxaphosphorinan-2-yl)methyl]benzyl}thio)-5,5-dimethyl-1,3,2-dioxaphosphorinane-2-sulfide] | 257 °C |
| O=P1(SCc2ccccc2CSP2(=O)Oc3ccccc3-c3ccccc32)Oc2ccccc2-c2ccccc21 (stereo not drawn) [Example 29, 6,6′-[1,2-phenylenebis(methylenethio)]bis(6H-dibenz[c, e][1,2]oxaphosphorin) 6,6′-dioxide] | 262 °C |
| Cc1c(CSP2(=O)Oc3ccccc3-c3ccccc32)c(C)c(CSP2(=O)Oc3ccccc3-c3ccccc32)c(C)c1CSP1(=O)Oc2ccccc2-c2ccccc21 (stereo not drawn) [Example 30, 6,6′,6″-[(2,4,6-trimethylbenzene-1,3,5-triyl)tris(methylenethio)]tris(6H-dibenzo-[c, e][1,2]oxaphosphorin) 6,6′,6″-trioxide] | 219 °C |
| CC(COCC(COCC(C)SP1(=S)OCC(C)(C)CO1)(COCC(C)SP1(=S)OCC(C)(C)CO1)COCC(C)SP1(=S)OCC(C)(C)CO1)SP1(=S)OCC(C)(C)CO1 (stereo not drawn) [Example 31] | 241 °C |
| CC1(C)COP(=S)(SCc2c(CSP3(=S)OCC(C)(C)CO3)c(CSP3(=S)OCC(C)(C)CO3)c(CSP3(=S)OCC(C)(C)CO3)c(CSP3(=S)OCC(C)(C)CO3)c2CSP2(=S)OCC(C)(C)CO2)OC1 [Example 33, 2,2′,2″,2″′,2″″′,2″″″-[benzene-1,2,3,4,5,6-hexaylhexakis(methylenethio)]hexakis(5,5-dimethyl-1,3,2-dioxaphosphorinane) 2,2′,2″,2″′,2′″″,2″″″-hexasulfide] | 262 °C |
| CC1(C)COP(=S)(SCCC(=O)NCNC(=O)CCSP2(=S)OCC(C)(C)CO2)OC1 [Example 36] | 220 °C |
| CC1(C)COP(=S)(SC(c2ccccc2)c2cccc(C(SP3(=S)OCC(C)(C)CO3)c3ccccc3)c2)OC1 (stereo not drawn) [Example 37, 2,2′-{1,3-phenylenebis[(phenylmethylene)thio]}bis(5,5-dimethyl-1,3,2-dioxaphosphorinane) 2,2′-disulfide] | 259 °C |
| S=P1(CC(c2ccccc2)c2ccccc2)OCC2(CO1)COP(=S)(SC(c1ccccc1)c1ccccc1)OC2 (stereo not drawn) [Example 38] | 240 °C |
